# Reference: patent US8268781B2
# Where two headings read alike, the source gives them in different places.
# Assay: Ex vivo bio-distribution studies
# Conditions: In-111 labeled, 555 kBq tail vein, mean of 4 mice; for tissue uptake at 1 h / tissue uptake at 4 h / tissue uptake at 24 h: mouse, iv, total radioactivity; for tissue uptake at 1 h: 1 h p.i.
# Procedure: The in vivo bio-distribution can, for example, be shown in rodents such as hairless mice. For this purpose […] CHO cells are injected into hairless mice. After approx. 3 to 5 weeks tumors approx. 300 mg in size had grown.
# 1, 4 und 24 h p.i. all the mice are killed and their organs removed.
# The uptake of radioactivity is measured and the organs are weighed. The % of injected dose program of organ weight is calculated.
# Mean value from the bio-distribution with 4 mice pro group in % i.D./g Stadev: standard deviation.
smiles,measurement,setting,value
"CC[C@H](C)[C@H](NC(=O)[C@H](Cc1ccccc1)NC(=O)[C@H](CCC(=O)O)NC(=O)[C@H](CCCCN)NC(=O)[C@H](C)NC(=O)[C@H](C)NC(=O)[C@H](CCC(N)=O)NC(=O)CNC(=O)[C@H](CCC(=O)O)NC(=O)[C@H](CC(C)C)NC(=O)[C@H](Cc1ccc(O)cc1)NC(=O)[C@H](CO)NC(=O)[C@H](CO)NC(=O)[C@@H](NC(=O)[C@H](CC(=O)O)NC(=O)[C@H](CO)NC(=O)[C@@H](NC(=O)[C@H](Cc1ccccc1)NC(=O)[C@@H](NC(=O)CNC(=O)[C@H](CCC(=O)O)NC(=O)[C@H](C)NC(=O)[C@@H](N)Cc1c[nH]cn1)[C@@H](C)O)[C@@H](C)O)C(C)C)C(=O)N[C@@H](C)C(=O)N[C@@H](Cc1c[nH]c2ccccc12)C(=O)N[C@@H](CC(C)C)C(=O)N[C@H](C(=O)N[C@@H](CCCCN)C(=O)NCC(=O)N[C@@H](CCCNC(=N)N)C(=O)N[C@@H](CCCCNC(=O)CN(CCN(CCN(CC(=O)O)CC(=O)O)CC(=O)O)CC(=O)O)C(N)=O)C(C)C [MC10, (DTPA-Lys^37) GLP1 (7-36) amide]",Uptake in Blood,4 h p.i.,0.00 % i.D./g
same,Uptake in Muscle,4 h p.i.,0.00 % i.D./g
same,Uptake in Blood,24 h p.i.,0.00 % i.D./g
same,Uptake in Heart,24 h p.i.,0.00 % i.D./g
same,Uptake in Muscle,24 h p.i.,0.00 % i.D./g
same,tissue uptake at 1 h,"hairless mice, pancreas, read-out: Uptake in Pancreas",0.58 %ID/g
same,tissue uptake at 4 h,"hairless mice, pancreas, 4 h p.i., read-out: Uptake in Pancreas",0.62 %ID/g
same,tissue uptake at 1 h,"hairless mice, spleen, read-out: Uptake in Spleen",0.02 %ID/g
same,tissue uptake at 4 h,"hairless mice, spleen, 4 h p.i., read-out: Uptake in Spleen",0.01 %ID/g
same,tissue uptake at 24 h,"hairless mice, spleen, 24 h p.i., read-out: Uptake in Spleen",0.01 %ID/g
same,tissue uptake at 1 h,"hairless mice, stomach, read-out: Uptake in Stomach",0.14 %ID/g
same,tissue uptake at 4 h,"hairless mice, stomach, 4 h p.i., read-out: Uptake in Stomach",0.13 %ID/g
same,tissue uptake at 24 h,"hairless mice, stomach, 24 h p.i., read-out: Uptake in Stomach",0.07 %ID/g
same,tissue uptake at 24 h,"hairless, GLP-1 receptor negative tumor, 24 h p.i., read-out: Uptake in Tumor− (GLP-1 receptor negative tumor)",0.01 %ID/g
same,tissue uptake at 1 h,"hairless, GLP-1 receptor positive tumor, read-out: Uptake in Tumor+ (GLP-1 receptor positive tumor)",0.42 %ID/g
same,tissue uptake at 4 h,"hairless, GLP-1 receptor positive tumor, 4 h p.i., read-out: Uptake in Tumor+ (GLP-1 receptor positive tumor)",0.31 %ID/g
same,tissue uptake at 24 h,"hairless, GLP-1 receptor positive tumor, 24 h p.i., read-out: Uptake in Tumor+ (GLP-1 receptor positive tumor)",0.2 %ID/g
same,tissue uptake at 1 h,"hairless, blood, read-out: Uptake in Blood",0.01 %ID/g
same,tissue uptake at 1 h,"hairless, liver, read-out: Uptake in Liver",0.03 %ID/g
same,tissue uptake at 4 h,"hairless, liver, 4 h p.i., read-out: Uptake in Liver",0.01 %ID/g
same,tissue uptake at 24 h,"hairless, liver, 24 h p.i., read-out: Uptake in Liver",0.01 %ID/g
same,tissue uptake at 1 h,"GLP-1 receptor negative tumor, read-out: Uptake in Tumor− (GLP-1 receptor negative tumor)",0.03 %ID/g
same,tissue uptake at 4 h,"GLP-1 receptor negative tumor, 4 h p.i., read-out: Uptake in Tumor− (GLP-1 receptor negative tumor)",0.02 %ID/g
same,tissue uptake at 1 h,"bones, read-out: Uptake in Bones",0.02 %ID/g
same,tissue uptake at 4 h,"bones, 4 h p.i., read-out: Uptake in Bones",0.01 %ID/g
same,tissue uptake at 24 h,"bones, 24 h p.i., read-out: Uptake in Bones",0.01 %ID/g
same,tissue uptake at 1 h,"heart, read-out: Uptake in Heart",0.02 %ID/g
same,tissue uptake at 4 h,"heart, 4 h p.i., read-out: Uptake in Heart",0.01 %ID/g
same,tissue uptake at 1 h,"intestine, read-out: Uptake in Intestine",0.12 %ID/g
same,tissue uptake at 4 h,"intestine, 4 h p.i., read-out: Uptake in Intestine",0.07 %ID/g
same,tissue uptake at 24 h,"intestine, 24 h p.i., read-out: Uptake in Intestine",0.04 %ID/g
same,tissue uptake at 1 h,"kidneys, read-out: Uptake in Kidneys",7.9 %ID/g
same,tissue uptake at 4 h,"kidneys, 4 h p.i., read-out: Uptake in Kidneys",7.41 %ID/g
same,tissue uptake at 24 h,"kidneys, 24 h p.i., read-out: Uptake in Kidneys",4.85 %ID/g
same,tissue uptake at 1 h,"lungs, read-out: Uptake in Lungs",0.8 %ID/g
same,tissue uptake at 4 h,"lungs, 4 h p.i., read-out: Uptake in Lungs",0.36 %ID/g
same,tissue uptake at 24 h,"lungs, 24 h p.i., read-out: Uptake in Lungs",0.22 %ID/g
same,tissue uptake at 1 h,"muscle, read-out: Uptake in Muscle",0.01 %ID/g
same,tissue uptake at 24 h,"pancreas, 24 h p.i., read-out: Uptake in Pancreas",0.37 %ID/g
